Values quoted from earlier work in patent US9668844B2, “Device for fixation at a dental site” (Colldent Y.A. Ltd., priority 2013, dated 2017).

How the values were obtained:
bacteria = conditions: see Paine, M. L. et al JADA 129 (1998)

SMILES | acute lethal dose of fluoride (F) (acute) [mg F/Kg body weight] | chronic toxicity (chronic) [mg F/Kg] | antibacterial activity (bacteria)
F [fluoride] | 33 | 0.1 | 
[F][Sn][F] [stannous fluoride] |  |  | has shown antibacterial activity
